Each structure is given as a SMILES string.

The Ki is the equilibrium dissociation constant of an inhibitor or competing ligand from its target. A high value points to weaker binding.

The target of assay [1] is T1, cysteine protease papain (Carica papaya, UniProt P00784).
T1 sequence (P00784 134-345): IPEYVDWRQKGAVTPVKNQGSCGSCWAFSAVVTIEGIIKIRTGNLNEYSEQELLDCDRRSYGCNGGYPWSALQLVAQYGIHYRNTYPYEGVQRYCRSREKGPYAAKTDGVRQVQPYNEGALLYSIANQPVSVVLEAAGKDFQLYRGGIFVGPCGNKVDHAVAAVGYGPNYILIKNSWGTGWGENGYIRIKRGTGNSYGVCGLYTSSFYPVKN
Nature of the assay: enzyme assay against cysteine protease papain (kinact/Ki). Format: biochemical. The following applies: covalent fragments of this work; J Med Chem. 2014, 57(11), 4969-74; read-out: Inhibitors of papain in this work, kinact/Ki. An excerpt:
In a further embodiment, once the potential covalent inhibitor candidate libraries have been prepared, these candidates can be evaluated by dosing them in a specific assay at a specific concentration versus the receptor to determine the potency of each of the candidates. Depending on the covalent inhibitor, the receptor, and the therapeutic area, the assays will vary. Methods of performing wet chemistry assays are well known. Examples of covalent fragments evaluated in the enzyme assays against cysteine protease papain is shown below (J Med Chem. 2014 Jun. 12; 57(11):4969-74): […]

Assay [2] deals with Cathepsin B cysteine protease (Homo sapiens, UniProt P07858). The assay can be described thus: inhibition of related Cathepsin B cysteine protease. It is filed as biochemical. The following applies: selectivity versus cathepsin L.
Assay [3] has as its target cysteine protease cathepsin L (Homo sapiens, UniProt P07711). The assay can be described thus: cathepsin L assay using commercially available fluorescent substrates. Format: biochemical. An excerpt:
Experimental validation of identified inhibitors of cysteine protease cathepsin L. Identified covalent inhibitors (including 53) had been synthesized and tested in cathepsin L assays using commercially available fluorescent substrates for cathepsins (Calbiochem).

Assay [4] has as its target T1, cysteine protease papain. As to conditions: J Med Chem. 2014, 57(11), 4969-74; cited from earlier work.

Chain of cysteine protease cathepsin L (P07711 114-333): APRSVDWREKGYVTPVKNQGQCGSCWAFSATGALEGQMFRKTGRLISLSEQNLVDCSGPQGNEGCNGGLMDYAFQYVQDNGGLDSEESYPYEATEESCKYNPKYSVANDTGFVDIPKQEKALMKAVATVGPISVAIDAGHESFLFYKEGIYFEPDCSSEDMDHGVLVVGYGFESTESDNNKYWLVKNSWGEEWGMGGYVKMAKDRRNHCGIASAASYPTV

As for `COC(=O)/C=C/CNC(=O)c1cc(-c2ccc(C)cc2)on1`, the kinact/KI on cysteine protease papain [1] came out at 1.23 M⁻¹ s⁻¹.
With `CC(Oc1ccc(Br)cc1Br)C(=O)NC/C=C/S(C)(=O)=O` (racemic) [Compound 53], in assay [2], the “inhibition of Cathepsin B” value is listed as “does not inhibit”. Also, in assay [3] (detailed kinetic analysis), the kinact/KI was determined as 4.1 M⁻¹ s⁻¹. The molecule further came in with a Ki in assay [3] (fluorescent substrates (Calbiochem)) of 134 ± 2 µM.
Turning to `COC(=O)/C=C/CNC(=O)[C@H](CNC(C)=O)Cc1ccccc1`, the “Known inhibitors of papain, kinact/Ki” value at cysteine protease papain [4] was 0.386 M⁻¹ s⁻¹.
With `COC(=O)/C=C/CNC(=O)[C@@H](CNC(C)=O)Cc1ccccc1`, the “Known inhibitors of papain, kinact/Ki” value on cysteine protease papain [4] was 6.575 M⁻¹ s⁻¹.
For the molecule `COC(=O)/C=C/CNC(=O)C1CCN(C(=O)CC(C)C)CC1`, the kinact/KI at cysteine protease papain [1] worked out at 0.461 M⁻¹ s⁻¹.
Same read-out and setting: to `COC(=O)/C=C/CNC(=O)c1sc(-c2ccccc2F)nc1C` belongs 0.409 M⁻¹ s⁻¹; to `COC(=O)/C=C/CNC(=O)c1ccc(C2CCCO2)s1` (stereo not shown), 0.037 M⁻¹ s⁻¹.
In the case of `COC(=O)/C=C/CNC(=O)[C@@H](CNC(C)=O)CC(C)C`, at cysteine protease papain [4], the “Known inhibitors of papain, kinact/Ki” value is 1.102 M⁻¹ s⁻¹.

Source of the values: patent US20190362816A1, “Systems and Methods for Developing Covalent Inhibitor Libraries for Screening Using Virtual Docking and Experimental Approaches” (Northwestern University, priority 2016, published 2019).
